This is an account of results in paper PMC11497361 (Current Research in Microbial Sciences, 2024).

Broadly, the IC50 is the concentration that gives 50% inhibition. Higher therefore signals a need for much substance.

The target of this test is WNV NS5 WT. Put plainly: MTase-Glo luminescence methyltransferase assay. The note with it: poly-A RNA acceptor, 20 µM SAM, pH 9, 30 °C, 25 min; MTase activity. Type of test: biochemical, Orthoflavivirus nilense.

`Nc1ncnc2c1ncn2[C@@H]1O[C@H](CNC(=O)C(c2ccccc2)(c2ccccc2)c2ccccc2)[C@@H](O)[C@H]1O` [compound 1, 5´-(2,2,2-triphenylacetamide)-5´-deoxyadenosine] registered a concentration for half-maximal inhibition (IC50) of 21.6 ± 11.1 µM.

On to `Nc1ncnc2c1ncn2[C@@H]1O[C@H](C[C@@H](N)CC[C@H](N)C(=O)O)[C@@H](O)[C@H]1O` [sinefungin], for which 3.6 ± 1.8 µM corresponded to half-maximal inhibition (IC50).
